Consider ten molecules from US9546152B2 (MERCK SHARP & DOHME CORP., priority 2012, dated 2017).

One assay concerns the target rat orexin-1 receptor (Rattus norvegicus (Rat), UniProt P56718). As to the kind of experiment: FLIPR Ca2+ Flux Assay, orexin-1 receptor. It is filed as cell-based. The conditions noted are these: CHO cells expressing the rat orexin-1 receptor; agonist 70 pM Ala-6,12 human orexin-A; read-out: hOX1R FLIPR IC50. On the procedure:
(§1) In a typical experiment the OX1 and OX2 receptor antagonistic activity of the compounds of the present invention was determined in accordance with the following experimental method. For intracellular calcium measurements, Chinese hamster ovary (CHO) cells expressing the rat orexin-1 receptor or the human orexin-2 receptor, are grown in Iscove's modified DMEM containing 2 mM L-glutamine, […], 1% hypoxanthine-thymidine supplement, 100 U/ml penicillin, 100 μg/ml streptomycin and 10% heat-inactivated fetal calf serum (FCS). The cells are seeded at 20,000 cells/well into Becton-Dickinson black 384-well clear bottom sterile plates coated with poly-D-lysine. All reagents were from GIBCO-Invitrogen Corp. The seeded plates are incubated overnight at 37° C. and 5% CO2. Ala-6,12 human orexin-A as the agonist is prepared as a 1 mM stock solution in 1% bovine serum albumin (BSA) and diluted in assay buffer (HBSS containing 20 mM HEPES, 0.1% BSA and 2.5 mM probenecid, pH7.4) for use in the assay at a final concentration of 70 pM. Test compounds are prepared as 10 mM stock solution in DMSO, then diluted in 384-well plates, first in DMSO, then assay buffer. On the day of the assay, cells are washed 3 times with 100 μl assay buffer and then incubated for 60 min (37° C., 5% CO2) in 60 μl assay buffer containing 1 μM Fluo-4AM ester, 0.02% pluronic acid, and 1% BSA. The dye loading solution is then aspirated and cells are washed 3 times with 100 μl assay buffer. 30 μl of that same buffer is left in each well. Within the Fluorescent Imaging Plate Reader (FLIPR, Molecular Devices), test compounds are added to the plate in a volume of 25 μl, incubated for 5 min and finally 25 μl of agonist is added. Fluorescence is measured for each well at 1 second intervals for 5 minutes and the height of each fluorescence peak is compared to the height of the fluorescence peak induced by 70 pM Ala-6,12 orexin-A with buffer in place of antagonist. […] Alternatively, compound potency can be assessed by a radioligand binding assay (described in Bergman et. al. Bioorg. Med. Chem. Lett. 2008, 18, 1425-1430) in which the inhibition constant (Ki) is determined in membranes prepared from CHO cells expressing either the OX1 or OX2 receptor. The intrinsic orexin receptor antagonist activity of a compound which may be used in the present invention may be determined by these assays.

The target in assay [1] is T1, human orexin-2 receptor (Homo sapiens (Human), UniProt O43614). As to the kind of experiment: radioligand binding assay, orexin-2 receptor. The following applies: membranes prepared from CHO cells expressing the OX2 receptor; read-out: hOX2R BIND hKi. On the procedure: as §1
Assay [2] concerns the target T1, human orexin-2 receptor. In words: FLIPR Ca2+ Flux Assay, orexin-2 receptor. It is filed as cell-based. The following applies: CHO cells expressing the human orexin-2 receptor; agonist 70 pM Ala-6,12 human orexin-A; read-out: hOX2R FLIPR IC50. On the procedure: as §1
In general terms: Calcium flux is commonly read through the fluorescence of an indicator in the cells.

T1 sequence (O43614 whole entry): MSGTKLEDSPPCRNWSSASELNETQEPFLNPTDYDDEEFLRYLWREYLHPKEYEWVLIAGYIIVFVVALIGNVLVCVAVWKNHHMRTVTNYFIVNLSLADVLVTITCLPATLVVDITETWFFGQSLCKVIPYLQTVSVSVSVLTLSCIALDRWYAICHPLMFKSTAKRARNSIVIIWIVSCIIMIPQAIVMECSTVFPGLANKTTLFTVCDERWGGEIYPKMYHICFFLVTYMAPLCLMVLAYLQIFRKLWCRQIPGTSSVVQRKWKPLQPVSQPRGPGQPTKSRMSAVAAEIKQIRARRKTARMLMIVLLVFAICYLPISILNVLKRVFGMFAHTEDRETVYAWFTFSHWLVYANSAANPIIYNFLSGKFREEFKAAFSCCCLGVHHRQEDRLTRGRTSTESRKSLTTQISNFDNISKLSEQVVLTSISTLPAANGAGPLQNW
Sequence of rat orexin-1 receptor (P56718 whole entry): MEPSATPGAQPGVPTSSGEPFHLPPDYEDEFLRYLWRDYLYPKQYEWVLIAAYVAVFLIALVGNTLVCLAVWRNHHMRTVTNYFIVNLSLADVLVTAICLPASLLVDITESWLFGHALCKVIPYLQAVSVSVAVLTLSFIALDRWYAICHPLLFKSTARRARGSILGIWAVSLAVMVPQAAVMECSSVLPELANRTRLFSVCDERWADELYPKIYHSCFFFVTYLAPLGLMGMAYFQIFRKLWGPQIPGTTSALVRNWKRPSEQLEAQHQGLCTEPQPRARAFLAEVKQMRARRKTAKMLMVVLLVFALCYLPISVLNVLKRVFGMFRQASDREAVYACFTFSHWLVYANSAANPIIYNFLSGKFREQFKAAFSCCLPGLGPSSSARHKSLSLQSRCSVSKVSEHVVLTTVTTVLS

Regarding `Cc1c(C#N)ccnc1O[C@@H]1CC[C@@H](C)N(C(=O)c2cc(F)ncc2-c2cncs2)C1` [Example 25, 2-{[(3R,6R)-1-{[2-fluoro-5-(1,3-thiazol-5-yl)pyridin-4-yl]carbonyl}-6-methylpiperidin-3-yl]oxy}-3-methylpyridine-4-carbonitrile], the IC50 at rat orexin-1 receptor was more than 10000 nM; on human orexin-2 receptor [2] it was 43 nM. For the same molecule, the Ki on human orexin-2 receptor [1] is 6.1 nM.

With `Cc1c(C#N)ccnc1O[C@@H]1CC[C@@H](C)N(C(=O)c2cc(F)ccc2-c2cscn2)C1` [Example 26, 2-{[(3R,6R)-1-{[5-fluoro-2-(1,3-thiazol-4-yl)phenyl]carbonyl}-6-methylpiperidin-3-yl]oxy}-3-methylpyridine-4-carbonitrile], the figures for the IC50 on rat orexin-1 receptor and at human orexin-2 receptor [2] were 967 nM and 10 nM, respectively. Also, the Ki on human orexin-2 receptor [1] amounted to 0.6 nM.

As to `Cc1c(C#N)ccnc1O[C@@H]1CC[C@@H](C)N(C(=O)c2cc(F)ccc2-c2nccs2)C1` [Example 28, 2-{[(3R,6R)-1-{[5-fluoro-2-(1,3-thiazol-2-yl)phenyl]carbonyl}-6-methylpiperidin-3-yl]oxy}-3-methylpyridine-4-carbonitrile], the IC50 is 412 nM on rat orexin-1 receptor and 5 nM at human orexin-2 receptor [2]. Moreover, at human orexin-2 receptor [1], the Ki stood at 0.1 nM.

For `Cc1c(C#N)ccnc1O[C@@H]1CC[C@@H](C)N(C(=O)c2ccccc2N2CCCC2)C1` [Example 29, 3-methyl-2-({(3R,6R)-6-methyl-1-[(2-pyrrolidin-1-ylphenyl)carbonyl]piperidin-3-yl}oxy)pyridine-4-carbonitrile], the IC50 on rat orexin-1 receptor amounted to 3100 nM; at human orexin-2 receptor [2], 29 nM. Further, the Ki at human orexin-2 receptor [1] came to 3.4 nM.

Turning to `Cc1c(C#N)ccnc1O[C@@H]1CC[C@@H](C)N(C(=O)c2ccccc2Oc2ccccc2)C1` [Example 30, 3-methyl-2-({(3R,6R)-6-methyl-1-[(2-phenoxyphenyl)carbonyl]piperidin-3-yl}oxy)pyridine-4-carbonitrile], the results for the IC50 at rat orexin-1 receptor and at human orexin-2 receptor [2] were more than 10000 nM and 46 nM, respectively. For the same molecule, the Ki on human orexin-2 receptor [1] is 2.3 nM.

With `Cc1c(C#N)ccnc1O[C@@H]1CC[C@@H](C)N(C(=O)c2ccsc2-c2cscn2)C1` [Example 31, 3-methyl-2-{[(3R,6R)-6-methyl-1-{[2-(1,3-thiazol-4-yl)thiophen-3-yl]carbonyl}piperidin-3-yl]oxy}pyridine-4-carbonitrile], the IC50 at rat orexin-1 receptor amounted to 2030 nM; on human orexin-2 receptor [2], 11 nM. Also, the Ki at human orexin-2 receptor [1] amounted to 0.8 nM.

As for `Cc1c(C#N)ccnc1O[C@@H]1CC[C@@H](C)N(C(=O)c2ccsc2-c2nccs2)C1` [Example 32, 3-methyl-2-{[(3R,6R)-6-methyl-1-{[2-(1,3-thiazol-2-yl)thiophen-3-yl]carbonyl}piperidin-3-yl]oxy}pyridine-4-carbonitrile], the IC50 on rat orexin-1 receptor stood at 1880 nM; at human orexin-2 receptor [2], 29 nM. In addition, at human orexin-2 receptor [1], the Ki is 0.7 nM.

On to `Cc1c(C#N)ccnc1O[C@@H]1CC[C@@H](C)N(C(=O)c2ccc(F)cc2-c2nccs2)C1` [Example 34, 2-{[(3R,6R)-1-{[4-fluoro-2-(1,3-thiazol-2-yl)phenyl]carbonyl}-6-methylpiperidin-3-yl]oxy}-3-methylpyridine-4-carbonitrile], for which the IC50 is 702 nM on rat orexin-1 receptor and 9 nM at human orexin-2 receptor [2]. Also, at human orexin-2 receptor [1], the Ki came to 0.2 nM.

In the case of `Cc1c(C#N)ccnc1O[C@@H]1CC[C@@H](C)N(C(=O)c2cc(F)cnc2-c2nccs2)C1` [Example 35, 2-{[(3R,6R)-1-{[5-fluoro-2-(1,3-thiazol-2-yl)pyridin-3-yl]carbonyl}-6-methylpiperidin-3-yl]oxy}-3-methylpyridine-4-carbonitrile], the values for the IC50 at rat orexin-1 receptor and at human orexin-2 receptor [2] were 453 nM and 13 nM, respectively. In addition, at human orexin-2 receptor [1], the Ki is 0.3 nM.

For `Cc1c(C#N)ccnc1O[C@@H]1CC[C@@H](C)N(C(=O)c2ccccc2-c2cnn(C)c2)C1` [Example 36, 3-methyl-2-{[(3R,6R)-6-methyl-1-{[2-(1-methyl-1H-pyrazol-4-yl)phenyl]carbonyl}piperidin-3-yl]oxy}pyridine-4-carbonitrile], the figures for the IC50 at rat orexin-1 receptor and at human orexin-2 receptor [2] were 2380 nM and 20 nM, respectively. Besides, the Ki on human orexin-2 receptor [1] worked out at 1.5 nM.

For orientation: IC50 means the point on the concentration scale where inhibition reaches its midpoint.
